Measurements published in patent US20240076666A1, “Immunomodulators Targeting MORC3 for Interferon Induction” (The Regents of the University of California, priority 2021, published 2024).

Test system: BLaER1 monocytes
Assay: Ectopic doxycycline-inducible expression of virulence factors, IFN induction by q-RT-PCR
Type: cell-based, human
Conditions: doxycycline-inducible lentiviral expression in BLaER1 monocytes, doxycycline 24 h; gene expression by q-RT-PCR
Method: BLaER1, U937 and THP-1 cells were cultured in RPMI Medium 1640 supplemented with L-glutamine, sodium pyruvate, 100 U/ml penicillin-streptomycin (Thermo Fisher) and 10% (v/v) FCS (Omega Scientific). HEK293T, U2OS and HCT116 cells were cultivated in DMEM Medium (Thermo Fisher) containing the same supplements. 1.4 million BLaER1 cells per well of a 6-well plate were trans-differentiated into monocytes for 5-6 days in medium containing 10 ng/ml of hrIL-3, 10 ng/ml hr-CSF-1 (M-CSF) (both PeproTech) and 100 nM β-Estradiol (Sigma-Aldrich) as previously described. 1.4 million THP-1 and U937 cells per well of a 6-well plate were differentiated overnight with 100 ng/ml PMA (Sigma-Aldrich). STING-deficient and corresponding control THP1 and U937 cells were a gift from Dan Stetson (University of Washington). BLaER1 cells were a gift from Thomas Graf (CRG, Barcelona, Spain) and Veit Hornung (LMU Munich, Germany). U2OS cells were a gift from Robert Tjian and Xavier Darzacq (UC Berkeley). THP1 cells were from ATCC. U937 cells were from the UC Berkeley Cell Culture Facility. HCT116 cells were a gift from David Raulet (UC Berkeley). […]
Gene expression was quantified by quantitative PCR with reverse transcription (RT-qPCR). […] SYBRGreen dye (Thermo Fisher Scientific) was used for quantitative PCR assays and analyzed with a real-time PCR system (StepOnePlus; Applied Biosystems). […]

Substance | IFN induction (IFN response)
ICP0: key virulence factor of Herpes Simplex Virus-1, SUMO-directed E3 ubiquitin ligase; Accession No. YP_009137074.1, SEQ ID NO: 2 | led to an IFN response
ICP0 D199A: predominantly nuclear variant of ICP0 | not impaired in IFN induction
